The test system of experiment [1] is MDR E. coli B2. Briefly: Checkerboard assay with LI14. The class given is cell-based, Escherichia coli. The following applies: for FIC index: antibiotic in combination with LI14, checkerboard 8 × 8, 18 h, ≤0.5 = synergy; for MICa of antibiotic: in the absence of LI14; for MICb of antibiotic: in the presence of ¼ MIC of LI14; for Potentiation: antibiotic potentiation in the presence of ¼ MIC of LI14. On the procedure:
(§1) Through checkerboard assay using two-fold serially diluted drugs (8 × 8 matrix), we evaluated the synergistic effects of LI14 with different mechanisms of antibiotics. The absorbance of cultures at 600 nm was determined by a Microplate reader after 18 h of incubation with (1.5 × 10^6 CFUs/mL) bacterial suspension. The FIC index (FICI) was calculated by performing two biological replicates for each combination. The formula is as follows: FIC index = FICIa + FICIb = MICab/MICa + MICba/Mb. An FIC index of ≤0.5 indicates synergy.
(§2) a/bMICs of antibiotics in the absence or presence of ¼ MIC of LI14.
(§3) cDegree of antibiotics potentiation in the presence of ¼ MIC of LI14.
(§4) –, none of potentiation activity.

Experiment [2] relates to MRSA T144. Briefly: Checkerboard assay with LI14. The class given is cell-based, Staphylococcus aureus. Conditions: for FIC index: antibiotic in combination with LI14, checkerboard; for MICa of antibiotic: in the absence of LI14; for MICb of antibiotic / Potentiation: in the presence of ¼ MIC of LI14. The protocol: as §1, §2, §3, §4
For experiment [3], the system named is MRSA T144. Briefly: Neutropenic mouse thigh infection model. The following applies: AMP 20 mg/kg i.p., 48 h. The format is in vivo, CD-1 mice. The protocol: Female CD-1 mice (n = 6 biologically independent animals per group) were first given cyclophosphamide (two consecutive injections of 150 and 100 mg kg^−1 at 4 and 1 day before infection) to construct neutropenia models. The mice’s right thighs were then injected with 100 μL MRSA T144 or E. coli B2 suspensions (10^5 CFUs per mouse). Post-infection of 1 h, 100 μL LI14 peptide (10 or 20 mg/kg), ampicillin/rifampicin (20 mg/kg) or a combination of LI14 with ampicillin/ rifampicin (10 + 20 mg/kg) were given by intraperitoneal injection. All mice were euthanized 48 h after drug administration, and right thigh muscle tissue was removed aseptically, homogenized, serially diluted, and plated on MHA to qualify bacterial loads after overnight incubation at 37 °C.

For experiment [4], the system named is sensitive E. coli ATCC 25922. Put plainly: Checkerboard assay with LI14. The following applies: for FIC index: antibiotic in combination with LI14, checkerboard; for MICa of antibiotic: in the absence of LI14; for MICb of antibiotic / Potentiation: in the presence of ¼ MIC of LI14. The class given is cell-based, Escherichia coli. On the procedure: as §1, §2, §3, §4

Experiment [5] concerns MRSA T144. Put plainly: microbe, parasite or virus in culture. Conditions: MRSA T144; unit not given. The format is cell-based, Staphylococcus aureus. Also on record: Antibacterial activity of LI14 derivates: unit not given here. On the procedure:
(§5) An antimicrobial activity study was conducted on all peptides against a panel of laboratory bacteria, including ATCC source and clinical isolates with resistance determinants. According to CLSI2021 guidelines, we tested the minimum inhibitory concentrations (MICs) of peptides using standard broth micro-dilutions. Briefly, bacteria grown to exponential phase were diluted in 1:1000 to MHB, subsequently, equivalent amounts of bacterial suspension (1.5 × 10^6 CFUs/mL) were mixed with different concentrations of peptides in a sterilized 96-well microtiter plate (Corning).

The test system of experiment [6] is S. aureus ATCC 29213. Briefly: microbe, parasite or virus in culture. The class given is cell-based, Staphylococcus aureus. Also on record: Antibacterial activity of LI14 derivates: unit not given here. Conditions: S. aureus 29213; unit not given. The protocol:
as §5

The subject of experiment [7] is E. coli ATCC 25922. Briefly: microbe, parasite or virus in culture. The class given is cell-based, Escherichia coli. Also on record: Antibacterial activity of LI14 derivates: unit not given here. Conditions: E. coli 25922; unit not given. The protocol: as §5
The subject of experiment [8] is E. coli B2 (blaNDM-5 + mcr-1). Put plainly: microbe, parasite or virus in culture. The class given is cell-based, Escherichia coli. Also on record: Antibacterial activity of LI14 derivates: unit not given here. The following applies: E. coli B2; unit not given. The protocol:
as §5

Experiment [9] has as its system MRSA T144. The format is cell-based, Staphylococcus aureus. The following applies: T144. On the procedure: MRSA T144 and E. coli B2 in the exponential growth phase were incubated with LI14 peptide supplemented with 10 mM Na^+, K^+, Mg^2+, 10% Dulbecco’s modified Eagle medium (DMEM), and 10% fetal bovine serum (FBS) for 16–18 h. The stability of LI14 was evaluated by the change of its antibacterial activity under different conditions.
LI14 were preincubated for 1 h at various temperatures (40–121 °C), pH (2–12), and proteases (pepsin, trypsin, and papain, final concentration 1 mg/mL). […] Following the incubation with the proteases, the leftover protease was precipitated with acetonitrile and removed by centrifugation at 3000 × g, followed by a MIC test.
Supplementary Table 4 Thermal, pH, salts and protease stability of AMPs against
MRSA T144 and E. coli B2 (MIC, μg/mL).
Treatment MRSA T144 E. coli B2

≈ marks a conversion by molar mass, not a printed value. Bridge positions count the residues as written; N and C are the ends. Peptide text beside a SMILES is read from it. Where only a bound is given, the exact number is not on record here.

Take `CC1(C)S[C@@H]2[C@H](NC(=O)[C@H](N)c3ccccc3)C(=O)N2[C@H]1C(=O)O` [Ampicillin]: the FIC index in experiment [1] is given as 2; in [2], 0.078. Moreover, the values for the MICa of antibiotic in experiment [1] and in experiment [2] were above 128 µg/mL and 64 µg/mL, respectively. In addition, the MICb of antibiotic in experiment [1] was above 128 µg/mL; in experiment [2], 1 µg/mL. The Potentiation in experiment [2] was 64 fold. Moreover, the “Bacterial load in thigh” value turned out to be 7.62 Log10CFUs/thigh in experiment [3] (animal 1); 7.65 Log10CFUs/thigh in [3] (animal 2); 8.00 Log10CFUs/thigh in experiment [3] (animal 3); 8.03 Log10CFUs/thigh in experiment [3] (animal 4); 7.34 Log10CFUs/thigh in [3] (animal 5); 7.15 Log10CFUs/thigh in experiment [3] (animal 6).

In the case of `C[C@H]1c2cccc(O)c2C(=O)C2=C(O)[C@]3(O)C(=O)C(C(N)=O)=C(O)[C@@H](N(C)C)[C@@H]3[C@@H](O)[C@@H]21` [Doxycycline], in experiment [1], the FIC index is listed as 0.25, the Potentiation turned out to be 8 fold, the MICa of antibiotic was 32 µg/mL and the MICb of antibiotic was found to be 4 µg/mL. In [4], the FIC index is listed as 0.25, the MICa of antibiotic was found to be 0.5 µg/mL, the MICb of antibiotic amounted to 0.063 µg/mL and the Potentiation is listed as 8 fold. In [2], the FIC index was 0.188, the MICa of antibiotic was 16 µg/mL, the MICb of antibiotic came out at 1 µg/mL and the Potentiation turned out to be 16 fold.

Regarding `CC[C@H](C)[C@H](NC(=O)[C@H](CCCNC(=N)N)NC(=O)[C@@H]1CSSC[C@H](NC(=O)[C@H](CC(C)C)NC(=O)[C@H](CCCCN)NC(=O)[C@H](CCCCN)NC(=O)[C@@H](N)CC(C)C)C(=O)N[C@@H](CCCNC(=N)N)C(=O)N[C@@H]([C@@H](C)CC)C(=O)N[C@@H](CC(C)C)C(=O)N[C@@H](CCCCN)C(=O)N[C@@H](CCCCN)C(=O)N[C@@H](CC(C)C)C(=O)N1)C(N)=O` [LI14 (S-S)] (H-LKKLCRILKKLCRI-NH2; disulfide 5-12 (inferred)), the “Antibacterial activity of LI14 derivates” value was found to be 4 in experiment [5], 4 in experiment [6], 8 in [7] and 4 in experiment [8]. In addition, the MIC (usually the smallest concentration in the dilution series that meets the test's criterion for growth inhibition) in [9] stood at 4 µg/mL (≈ 2.32 µM).

For the molecule `CN[C@H](CC(C)C)C(=O)N[C@H]1C(=O)N[C@@H](CC(N)=O)C(=O)N[C@H]2C(=O)N[C@H]3C(=O)N[C@H](C(=O)N[C@H](C(=O)O)c4cc(O)cc(O)c4-c4cc3ccc4O)[C@H](O)c3ccc(c(Cl)c3)Oc3cc2cc(c3O[C@@H]2O[C@H](CO)[C@@H](O)[C@H](O)[C@H]2O[C@H]2C[C@](C)(N)[C@H](O)[C@H](C)O2)Oc2ccc(cc2Cl)[C@H]1O` [Vancomycin], in experiment [1], the FIC index stood at 0.078, the Potentiation amounted to 64 fold, the MICa of antibiotic came out at 128 µg/mL and the MICb of antibiotic was found to be 2 µg/mL. For the same molecule, in experiment [4], the FIC index worked out at 0.375, the MICa of antibiotic turned out to be 64 µg/mL, the MICb of antibiotic turned out to be 8 µg/mL and the Potentiation is reported as 8 fold. Further, in experiment [2], the FIC index is given as 2.0, the MICa of antibiotic came to 0.5 µg/mL and the MICb of antibiotic was 0.5 µg/mL.

Consider “LKKLCRILKKLCRA-NH2 [LI14-A14, Ala substitute of LI14, position 14]”, for which the “Antibacterial activity of LI14 derivates” value in experiment [5] came to 32; in experiment [6], 16; in experiment [7], 16; in experiment [8], 4.

The record behind these values is paper PMC9452538, “The antimicrobial peptide LI14 combats multidrug-resistant bacterial infections” (Communications Biology, 2022).
